Measured values as given in patent US20080071116A1, “Modulators of Lysophosphatidic Acid (Lpa) Signaling and the Use Thereof” (THE BOARD OF REGENTS OF THE UNIVERSITY OF TEXAS SYSTEM, priority 2004, published 2008).
pEC50: −log10 of the molar value. “Also recorded” adds a separate entry of the source.

How the values were obtained:
DU145 cells [1] = test: calcium mobilization assay in androgen insensitive prostate cancer DU145 cells; type: cell-based, human
PC-3 cells [2] = test: lamellipodia formation in PC-3 cells; type: cell-based, human; conditions: 30 μM; for effect on spontaneously activated lamellipodia: PC-3, serum-free, FIGS. 38-40; for inhibition of 18:1 LPA-induced lamellipodia formation: PC-3, FIGS. 42-44
PC-3 cells [3] = test: cell growth (cell viability) in PC-3 cells; type: cell-based, human; conditions: for inhibition of cell growth (cell viability): PC-3
PC-3 cells [4] = test: calcium mobilization assay in androgen insensitive prostate cancer PC-3 cells; type: cell-based, human
Description: (§1) The procedures for these calcium mobilization assays are as followed: OVCAR3 cells and PC-3 cells were cultured in RPMI 1640 medium with 10% FBS (fetal bovine serum). HT29 cells were cultured in DMEM (high glucose) medium with 10% FBS. All cells were cultured at about 37° C. in a humidified atmosphere with 5% CO2. After starvation in serum-free medium for about 12-24 hours, cells were harvested and loaded with about 1 μM of Indo-1 AM in serum-free medium for about 45 min at 37° C. Cells were washed in PBS and resuspended at 2×10^6 cells/ml in a [Ca^2+]i assay buffer (Sodium chloride, NaCl, about 140 mM, potassium chloride, KCl, about 2 mM, magnesium chloride, MgCl2, about 1 mM, calcium chloride, CaCl2, about 2 mM, in about 25 mM HEPES buffer at pH 7.4 with about 10 mM of glucose). Cytoplasmic [Ca^2+]i was determined at an excitation wavelength of about 331 nm and an emission wavelength of 410 nm using a fluorescence spectrophotometer (Hitachi, F-4000). Approximately 3×10^6 cells were used for [Ca^2+]l determination in a stirred quartz cuvette kept at about 37° C. OMPT or 18:1 LPA was dissolved in about 0.1% BSA/PBS solution and applied immediately to the cells. To test other LPA derivatives of the invention, cells were exposed to the derivatives for about 3 minutes or for a period of various times in time course related experiments before a LPA agonist, such as 18:1 LPA, OMPT, or other LPAs was applied into the cuvette.
(§2) The concentration of calcium mobilization giving the half-maximal response (EC50) was obtained from the concentration-response curve fitted to a sigmoidal logistic equation, with the maximal calcium response set to 100% using the GraphPad Prism. Maximal response value is expressed as mean +/−s.e.m. EC50 value is expressed with 95% confidence.

LPA1 receptor [5] = target: T1, LPA1 receptor (Homo sapiens, UniProt Q92633); test: calcium mobilization in Sf9 insect cells expressing LPA1; type: cell-based; conditions: Sf9 cells expressing LPA1
ERK1/2 = ERK1/2 (p42/p44-MAPK) phosphorylation immunoblot in prostate cancer cells; type: cell-based, human
Description: (§3) The cells were then lysed in SDA sample buffer or ice-cold X-100 lysis buffer (1% Triton X-100, 50 mM HEPES [pH7.4], 150 mM NaCl, 1.5 mM MgCl2, 1 mM EGTA, 10% glycerol, 100 mM NaF, 10 mM Na pyrophosphate, and 1 mM aprotinin). Total cellular protein was resolved by SDS/PAGE, transferred to immobilon [poly (vinylidene difluoride)], and immunoblotted with antibodies following the protocols provided by manufactures. Immunocomplexes were visualized with an enhanced chemiluminescence detection kit (Amersham Pharmacia) using horseradish peroxidase-conjugated secondary antibodies (Bio-Rad).

AKT = AKT phosphorylation immunoblot in prostate cancer cells; type: cell-based, human; conditions: PC-3 and DU145 cells
Description: as §3

p38-MAPK = p38-MAPK activation, phosphospecific antibodies; type: cell-based, human; conditions: PC-3 and DU145 cells
Description: as §3

[6] = tested on: vasodilator-stimulated protein (VASP); test: VASP phosphorylation in PC-3 cells; type: cell-based, human
Description: as §3
To determine the mechanisms regulating LPA-induced cell migration, actin filament binding proteins that link receptor signaling to lamellipodia formation were evaluated.

PKA = PKA activation in PC-3 cells; type: cell-based, human
PC-3 cells [7] = test: cellular proliferation and growth factor withdrawal-induced apoptosis; type: cell-based, human
PC-3 cells [8] = test: membrane ruffling and cell migration in PC-3 cells; type: cell-based, human
HT29 cells [9] = test: lamellipodia formation in colon cancer HT29 cells; type: cell-based; conditions: HT29, FIG. 26
LPA3 receptor [10] = target: T2, LPA3 receptor (Homo sapiens, UniProt Q9UBY5); test: calcium mobilization in Sf9 insect cells expressing LPA3; type: cell-based; parameters: expressed in transfected cells; host or cells: Sf9 insect cells
T2 sequence (Q9UBY5 1-353): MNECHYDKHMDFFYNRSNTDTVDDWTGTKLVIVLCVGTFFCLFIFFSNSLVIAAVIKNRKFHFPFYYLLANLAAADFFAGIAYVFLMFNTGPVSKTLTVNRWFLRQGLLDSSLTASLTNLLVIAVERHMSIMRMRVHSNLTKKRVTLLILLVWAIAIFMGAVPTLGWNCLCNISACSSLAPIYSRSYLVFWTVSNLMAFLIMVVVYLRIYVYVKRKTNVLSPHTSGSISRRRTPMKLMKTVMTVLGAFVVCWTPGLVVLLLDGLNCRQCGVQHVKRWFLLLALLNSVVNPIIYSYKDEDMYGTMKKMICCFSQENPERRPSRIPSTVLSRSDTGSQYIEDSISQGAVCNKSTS

LPA2 receptor [11] = target: T3, LPA2 receptor (Homo sapiens, UniProt Q9HBW0); test: calcium mobilization in Sf9 insect cells expressing LPA2; type: cell-based; parameters: expressed in transfected cells; host or cells: Sf9 insect cells; conditions: Sf9 cells expressing LPA2; read-out: EC50 of increase in intracellular calcium concentration
HT29 cells [12] = test: calcium mobilization assay in colon cancer HT29 cells; type: cell-based
Description: as §1, §2

DU145 cells [13] = test: cell growth (cell viability) in DU145 cells; type: cell-based, human
Jurkat T cells = conditions: human Jurkat T cells; Xu et al. 1995; cited from earlier work
LNCaP cells = test: calcium mobilization in androgen sensitive prostate cancer LNCaP cells; type: cell-based
interleukin-8 (IL-8) = test: IL-8 transcription and secretion; type: cell-based, human; conditions: PC-3 cells
LPA2 receptor [14] = target: T3, LPA2 receptor; test: HA-Erk1 phosphorylation in HEK 293 T cells transfected with LPA2; type: cell-based; parameters: expressed in transfected cells; conditions: LPA2 transfected HEK 293 T; 0.01, 0.1, or 1 μM
Text: (§4) We have also tested kinase activation by the LPA3 receptor subtype using OMPT as a tool. We determined whether activation of the LPA3 receptor by OMPT can be linked to ERK activation (related to MAP kinase signaling pathway) in mammalian cells, HEK 293 T cells, by co-transfecting hemagglutinin (HA)-tagged Erk1 (HA-Erk1) with either a control vector or an expression vector having LPA1, LPA2, or LPA3. […] There is no phosphorylation of HA-Erk1 at lower concentration of LPA or OMPT in the absence of LPA receptors. […] Thus, the data confirmed that OMPT, an LPA derivative, is a selective agonist for LPA3 receptor subtype, capable of inducing MAPK activation.

LPA3 receptor [15] = target: T2, LPA3 receptor; test: HA-Erk1 phosphorylation in HEK 293 T cells transfected with LPA3; type: cell-based; parameters: expressed in transfected cells; conditions: LPA3 transfected HEK 293 T; 0.01, 0.1, or 1 μM
Text: as §4

LPA1 receptor [16] = target: T1, LPA1 receptor; test: HA-Erk1 phosphorylation in HEK 293 T cells transfected with LPA1; type: cell-based; parameters: FLAG; expressed in transfected cells; host or cells: HEK 293 T cells; conditions: LPA1 transfected HEK 293 T; 0.01, 0.1, or 1 μM
Text: as §4

OVCAR3 cells = test: calcium mobilization assay in ovarian cancer OVCAR3 cells; type: cell-based, human; conditions: OVCAR3
Description: as §1, §2

DU145 cells [17] = test: cell migration of DU145 cells; type: cell-based, human
[18] = in the presence of 10 μM of 18:1 LPA, FIGS. 45-47

T1 sequence (Q92633 whole entry): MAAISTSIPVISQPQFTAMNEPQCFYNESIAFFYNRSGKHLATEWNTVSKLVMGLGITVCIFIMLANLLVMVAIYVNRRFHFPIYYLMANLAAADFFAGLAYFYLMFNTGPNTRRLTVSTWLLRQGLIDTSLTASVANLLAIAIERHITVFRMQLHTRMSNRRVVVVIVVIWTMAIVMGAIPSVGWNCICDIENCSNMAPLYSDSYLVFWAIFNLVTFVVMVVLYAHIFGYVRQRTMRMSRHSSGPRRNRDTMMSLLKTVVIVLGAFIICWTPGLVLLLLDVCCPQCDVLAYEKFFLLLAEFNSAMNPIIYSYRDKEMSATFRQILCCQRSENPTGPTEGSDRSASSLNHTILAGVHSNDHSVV
T3 sequence (Q9HBW0 whole entry): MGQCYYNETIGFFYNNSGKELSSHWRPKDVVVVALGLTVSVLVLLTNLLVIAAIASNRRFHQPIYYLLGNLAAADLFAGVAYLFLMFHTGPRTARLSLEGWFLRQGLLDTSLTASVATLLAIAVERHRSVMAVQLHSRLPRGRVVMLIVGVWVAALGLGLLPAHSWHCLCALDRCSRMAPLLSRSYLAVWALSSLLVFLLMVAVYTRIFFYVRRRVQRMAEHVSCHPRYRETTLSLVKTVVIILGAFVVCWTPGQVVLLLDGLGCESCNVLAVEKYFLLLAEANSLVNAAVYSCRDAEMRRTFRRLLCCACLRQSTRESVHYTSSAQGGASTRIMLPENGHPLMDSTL

CCCCCCCCCCCCCC(=O)OC[C@@H](O)COP(=O)(O)OCC(O)CO (mixture of isomers) [14:0 LPG, 1-myristoyl-2-hydroxy-sn-glycero-3-[phospho-rac-(1-glycerol)]]
inhibition of 14:0 LPA-induced calcium mobilization (DU145 cells [1]): inhibited calcium mobilization; also recorded: effective inhibitor/antagonist
effect on spontaneously activated lamellipodia (PC-3 cells [2]): negligible effect
inhibition of 18:1 LPA-induced lamellipodia formation (PC-3 cells [2]): no inhibition
inhibition of cell growth (cell viability) (PC-3 cells [3]; [18]): inhibition of cell growth (cell viability) at high concentrations

CCCCCCCCCCCCCC(=O)OC[C@@H](O)COP(=O)(O)O [14:0 LPA, reference compound]
pEC50 (PC-3 cells [4]): ~7.01
elevation of intracellular calcium (LPA1 receptor [5]): no elevated intracellular calcium concentration is observed
activation of p42/p44-MAPK (ERK1/2; PC-3 and DU145 cells): efficiently activates p42/p44-MAPK
activation of AKT (AKT): only marginal effects
activation of p38-MAPK (p38-MAPK): only marginal effects
induction of VASP phosphorylation at Ser157 PKA site [6]: induced phosphorylation
activation of PKA (PKA): efficiently activate PKA
cellular proliferation and prevention of growth factor withdrawal-induced apoptosis (PC-3 cells [7]): does not increase cellular proliferation
stimulation of membrane ruffling and cell migration (PC-3 cells [8]): stimulate membrane ruffling and cell migration
activation of lamellipodia (HT29 cells [9]): strong activator of lamellipodia
calcium mobilization (LPA3 receptor [10]): no elevated intracellular calcium concentration is observed
pEC50 (LPA2 receptor [11]): 10.00

CCCCCCCC/C=C\CCCCCCCC(=O)OC[C@@H](O)COP(=O)(O)OCC(O)CO (mixture of isomers) [18:1 LPG, 1-oleoyl-2-hydroxy-sn-glycero-3-[phospho-rac-(1-glycerol)]]
inhibition of (18:1) LPA-induced calcium mobilization (HT29 cells [12]; HT29 cells (only express LPA2), FIGS. 21-22): effective inhibitors/antagonists
inhibition of OMPT-induced calcium mobilization (PC-3 cells [4]; FIGS. 19-20): effective inhibitor/antagonist
antagonism of 18:1 LPA-induced calcium mobilization (DU145 cells [1]; 10 and 30 μM in FIGS. 15-18): completely antagonized
antagonism of 18:1 LPA-induced calcium mobilization (DU145 cells [1]; 10 and 30 μM in FIGS. 15-18, listed as 18:1-acyl-LPG): shifted to the right
effect on spontaneously activated lamellipodia (PC-3 cells [2]): inhibit spontaneously activated lamellipodia
inhibition of 18:1 LPA-induced lamellipodia formation (PC-3 cells [2]): inhibition of 18:1 LPA-induced LPA2 receptor mediated lamellipodia formation
inhibition of cell growth (cell viability) (PC-3 cells [3]; [18]): inhibition of cell growth (cell viability) at high concentrations
inhibition of cell growth (cell viability) (PC-3 cells [3]; without LPA, FIGS. 46-47): inhibition of cell growth (cell viability) at high concentrations
reduction of cell viability / cell growth (PC-3 cells [3]; PC-3 cells): reduced cell viability
reduction of cell viability / cell growth (DU145 cells [13]): reduced cell viability

lysophosphatidyl glycerol [LPG]
inhibition of LPA signaling (Jurkat T cells): inhibitor of LPA signaling

lysophosphatidic acid [LPA, reference compound]
calcium mobilization (LNCaP cells): does not induce the increase of intracellular calcium concentration
IL-8 transcription and secretion (interleukin-8 (IL-8)): increases interleukin-8 (IL-8) transcription and stimulates IL-8 secretion
HA-Erk1 phosphorylation (LPA2 receptor [14]): stimulates phosphorylation of HA-Erk1 in a dose-dependent manner
HA-Erk1 phosphorylation (LPA3 receptor [15]): stimulates phosphorylation of HA-Erk1 in a dose-dependent manner
HA-Erk1 phosphorylation (LPA1 receptor [16]): stimulates phosphorylation of HA-Erk1 in a dose-dependent manner

D-3-deoxy-phosphophatidyl-myo-inositol ether lipid [DPIEL]
inhibition of (18:1) LPA-induced calcium mobilization (HT29 cells [12]; HT29 cells (express only LPA2), FIG. 6): does not inhibit calcium mobilization
maximum calcium response to OMPT (OVCAR3 cells; DPIEL about 10 μM exposed group (control about 123.5+/−16.4 nM)): about 136.1+/−16.6 nM
suppression of the maximum response to OMPT (OVCAR3 cells; about 20 μM DPIEL): about 36%
suppression of maximum calcium mobilization induced by 18:1 LPA (PC-3 cells [4]; FIG. 7): about 56%
inhibition of EGF-induced phosphorylation of ERK1/2 (ERK1/2; LNCaP cells, FIG. 8B): fails to reduce EGF-induced phosphorylation of ERK1/2
inhibition of ERK1/2 phosphorylation activated by 18:1 LPA and 14:0 LPA (ERK1/2; PC-3 cells, DPIEL about 30 minutes, FIG. 8A): inhibits phosphorylation of the extracellular signal-regulating kinase (ERK1/2)
inhibition of VASP phosphorylation [6]: inhibits phosphorylation of vasodilator stimulated protein (VASP)
inhibition of LPA-induced cell migration (PC-3 cells [8]): inhibits
inhibition of LPA-induced cell migration (DU145 cells [17]): inhibits

O=S(=O)(NCCNC/C=C/c1ccc(Br)cc1)c1cccc2cnccc12 [H-89]
inhibition of membrane ruffling and cell migration induced by 18:1 LPA and 14:0 LPA (PC-3 cells [8]): completely inhibited membrane ruffling and cell migration

EGF: epidermal growth factor
induction of VASP phosphorylation at Ser157 PKA site [6]: Neither OMPT nor EGF increased phosphorylation of VASP
